Common to all, as to format: cell-based
The subject of data set [1] is E.coli CMCC 44103. The experiment in a line: MIC, broth microdilution. The settings on record: Escherichia coli. The method, boiled down: (§1)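 Two-fold broth microdilution in MHB; inoculum 5×10^5 CFU/mL final, from log-phase cultures adjusted to 0.5 McFarland. Plates incubated 24 h at 37° C. Test compounds from 2560 μg/mL stock in 1% DMSO; drug-free negative control included.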
For orientation: Broth dilution looks for growth in wells or tubes with falling amounts of substance.

Data set [2] deals with S. aureus ATCC 29213. Nature of the data set: MIC, broth microdilution. The settings on record: Staphylococcus aureus. An outline of the steps:
as §1

Data set [3] deals with Methicillin-resistant S. aureus ATCC 43300. Nature of the data set: MIC, broth microdilution. The settings on record: Staphylococcus aureus, ATCC 43300 / MRSA, read-out: Minimum inhibitory concentration MRSA^c. The method, boiled down: as §1
Data set [4] deals with Methicillin-resistant S. epidermidis ATCC 51625. Nature of the data set: MIC, broth microdilution. Conditions: Staphylococcus epidermidis, ATCC 51625 / MRSE, read-out: Minimum inhibitory concentration MRSE^e. The method, boiled down: as §1
The subject of data set [5] is Methicillin-resistant S. aureus ATCC 33591. The experiment in a line: MIC, broth microdilution. Conditions: Staphylococcus aureus, ATCC 33591 / MRSA, read-out: Minimum inhibitory concentration MRSA^b. An outline of the steps: as §1
Data set [6] deals with E. coli ATCC 25922. The experiment in a line: MIC, broth microdilution. The settings on record: Escherichia coli. The method, boiled down: as §1
Data set [7] concerns S. enterica ATCC14028. Nature of the data set: MIC, broth microdilution. Conditions: Salmonella enterica. An outline of the steps:
as §1

For data set [8], the system named is A. baumannii ATCC 19606. The experiment in a line: MIC, broth microdilution. The settings on record: Acinetobacter baumannii. An outline of the steps:
as §1

Data set [9] has as its system HEK293 Cells. Nature of the data set: Cytotoxicity, Cell Counting Kit-8. The protocol:
(§2) Cell Counting Kit-8 was used to evaluate the cytotoxicity of the compounds.
(§3) (4) Cell culture: HepG2, HEK293 and A549 cells were evenly dispersed in culture medium, seeded into 96-well plates, and cultured under appropriate environmental conditions to keep the cells completely attached to the well walls.
(§4) (5) Compound treatment: Add different concentrations of compounds I-8 and I-9 to each well (the concentrations are 0.78, 1.56, 3.13, 6.25, 12.5, 25, 50 and 100 μM, respectively, and perform 6 parallel experiments). Set up a blank control group and a normal control group. After incubation for 24 hours, observe the cell condition, which observed under a microscope.
(§5) (6) CCK-8 solution treatment: Add CCK-8 solution to each well and incubate for 4 hours to allow it to react with the cells.
(§6) (7) Absorbance determination: Use a full-wavelength scanning multifunctional reader, place the 96-well plate in the instrument, oscillate to mix to make the color evenly distributed, and measure the absorbance value at 490 nm.
(§7) (8) Data analysis: Based on the measured absorbance values, the cell survival rate at different concentrations can be calculated. The median cytotoxic concentration was used to evaluate the cytotoxicity of the compound to A549, HEK293 and HepG2 cells.
A general note: Formazan colour is commonly taken as a measure of viable cells.

Data set [10] has as its system A549 Cells. The experiment in a line: Cytotoxicity, Cell Counting Kit-8. The procedure:
as §2, §3, §4, §5, §6, §7

The test system of data set [11] is HepG2 Cells. The experiment in a line: Cytotoxicity, Cell Counting Kit-8. The procedure: as §2, §3, §4, §5, §6, §7

Values after ≈ are worked out from the molar mass of the structure shown. Where two headings read alike, the source gives them in different places.

The CC50 is the concentration at which the toxic effect on the cells reaches its halfway point. In the case of `C=C[C@]1(C)C[C@@H](OC(=O)CSc2nc3cc[n+](Cc4ccc(C)cc4)cc3[nH]2)[C@]2(C)[C@H](C)CC[C@]3(CCC(=O)[C@H]32)[C@@H](C)[C@@H]1O` [Compound i, 5-(4-methylbenzyl)-2-((2-(((3aR,4R,5R,7S,8S,9R,9aS,12R)-8-hydroxy-4,7,9,12-tetramethyl-3-oxo-7-vinyldecahydro-4,9a-propancyclopenta[8]cyclo-5-yl)oxy)-2-oxoethyl)thio)-3H-imidazo[4,5-C]pyridine-5-ium], the MIC is 0.125 µg/mL in [1] (CMCC44103, E.coli CMCC 44103, read-out: Minimum inhibitory concentration E.c.^i); 0.0625 µg/mL in data set [2] (ATCC29213, S. aureus ATCC 29213, read-out: Minimum inhibitory concentration S.a.^d); 0.0625 µg/mL in [3] (Methicillin-resistant S. aureus ATCC 43300); 0.0625 µg/mL in [4] (Methicillin-resistant S. epidermidis ATCC 51625); 0.125 µg/mL in data set [5] (Methicillin-resistant S. aureus ATCC 33591); 0.125 µg/mL in data set [6] (ATCC25922, E. coli ATCC 25922, read-out: Minimum inhibitory concentration E.c.^h). For the same compound, the MIC in [7] (S. enterica ATCC14028, read-out: Minimum inhibitory concentration S.e.^g) is 0.25 µg/mL; in data set [8] (ATCC19606, A. baumannii ATCC 19606, read-out: Minimum inhibitory concentration A.b.^f), 0.25 µg/mL. The CC50 in [9] (CCK-8, 24 hours incubation, read-out: CC50 HEK293 Cells) was 96.4 µM; in [10] (CCK-8, 24 hours incubation, read-out: CC50 A549 Cells), more than 100 µM; in data set [11] (CCK-8, 24 hours incubation, read-out: CC50 HepG2 Cells), more than 100 µM.
Take `C=C[C@]1(C)C[C@@H](OC(=O)CS[C@@H]2C[C@H]3CC[C@@H](C2)N3C)[C@]2(C)[C@H](C)CC[C@]3(CCC(=O)[C@H]32)[C@@H](C)[C@@H]1O` [Retapamulin, reference compound]: the MIC stood at 32 µg/mL (≈ 61.8 µM) in data set [1] (CMCC44103, read-out: Minimum inhibitory concentration E.c.^i); 4 µg/mL (≈ 7.73 µM) in [2] (ATCC29213, read-out: Minimum inhibitory concentration S.a.^d); 16 µg/mL (≈ 30.9 µM) in [3]; 32 µg/mL (≈ 61.8 µM) in data set [4]; 32 µg/mL (≈ 61.8 µM) in [5]; 32 µg/mL (≈ 61.8 µM) in data set [6] (ATCC25922, read-out: Minimum inhibitory concentration E.c.^h). Moreover, the MIC was determined as 128 µg/mL (≈ 247 µM) in data set [7] (ATCC14028, read-out: Minimum inhibitory concentration S.e.^g) and 4 µg/mL (≈ 7.73 µM) in [8] (ATCC19606, read-out: Minimum inhibitory concentration A.b.^f). The CC50 in data set [9] (human, 24 h) came to 57.5 µM; in [10] (human, 24 h) it was 71.5 µM; in [11] (human, 24 h) it was 61.1 µM.

The values are drawn from patent US12275734B1, “Pleuromutilin onium salt derivative containing a 3H-imidazo[4,5-c]pyridine side chain, and a preparation method and application thereof” (SHAANXI UNIVERSITY OF SCIENCE AND TECHNOLOGY, priority 2024, dated 2025).
